How the values were obtained:
[1] = dogs, male vs female; cited from earlier work
[2] = Discoloration of olanzapine in contact with excipients; assay type: physicochemical; conditions: contacted with certain excipients including powder blends; exacerbated by ambient air, elevated temperatures, moist environments

Cc1cc2c(s1)Nc1ccccc1N=C2N1CCN(C)CC1 [olanzapine, 2-methyl-4-(4-methyl-1-piperazinyl)-10H-thieno[2,3-b][1,5]benzodiazepine]
difference in the pharmacokinetic of olanzapine between the sexes [1]: no difference | discoloration (stability) [2]: undergoes undesirable discoloration

— patent US6169084A, “2-methyl-thieno-benzodiazepine formulation” (Eli Lilly and Company, priority 1998, dated 2001)
